Where two headings read alike, the source gives them in different places.
Key:
human platelet PLA2 = target: T1, human platelet PLA2 (Homo sapiens, UniProt P14555); test: in vitro assay of inhibition of human platelet PLA2 (hydrolysis of [1-14C]oleic acid labelled E. coli membrane phospholipids); format: biochemical
T1 construct: The PLA2 enriched supernatant fluid is removed; from tissue; host or cells: expired human platelets from the blood bank (acid extract, 10,000 g supernatant)
T1 sequence (P14555 21-144): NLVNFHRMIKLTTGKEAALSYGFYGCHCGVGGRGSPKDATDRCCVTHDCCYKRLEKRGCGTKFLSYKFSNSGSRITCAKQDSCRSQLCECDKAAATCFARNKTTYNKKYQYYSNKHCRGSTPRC
Protocol: The ability of the compounds to inhibit the activity of PLA2 enzyme is measured in the following in vitro assay.
(§1) The assay is carried out as follows:
E. coli, cultured to exponential growth, are sedimented for 15 minutes at 10,000 g and resuspended in sterile isotonic saline (1-3 ml). 10-25 μCi [1-^14 C] oleic acid is added to a sterile flask, evaporated by N2 and resolubilized with 0.3 ml 20% fatty acid-free BSA. 75-100 ml of nutrient broth and 1 ml E. coli are then added to each flask and incubated for 2-3 hours at 37° C. [1-^14 C] oleic acid labelled E. coli are then sedimented, suspended in saline and added to fresh nutrient broth and incubated for 1.5 hours at 37° C. to complete [1-^14 C] oleic acid incorporation into the phospholipids. After overnight refrigeration of cultures, E. coli are again sedimented, suspended in saline and autoclaved for 15 minutes at 120° C. E. coli cultures are washed twice with saline (first wash contains 1% BSA) and resuspended in saline. Non-labelled E. coli cultures are also prepared in the same manner. Cell number is determined by measuring the optical density at 550 nm ([…]=1 O.D.). The amount of radioactivity associated with cells is determined by counting a defined volume of cell suspension. The specific activity is subsequently adjusted by adding non-labelled E. coli to yield 2-4×10 cpm per 1×10^10 E. coli. [1-^14 C] arachidonic acid-labelled E. coli are similarly prepared.
Platelet PLA2 Preparation
Expired human platelets from the blood bank are centrifuged for 15 minutes at 200 g to obtain a platelet rich plasma fraction and to remove the red blood cells. Platelets are sedimented for 15 minutes at 2500 g and the plasma is removed before adding cold 0.18N […] (4 ml/unit). Platelets are homogenized, incubated for 1 hour at 4° C., homogenized again and centrifuged for 15 minutes at 10,000 g. The PLA2 enriched supernatant fluid is removed and the amount of protein is determined by the Lowry method. The preparation is divided into various portions and stored at -20° C.
The assay measures the hydrolysis of E. coli membrane phospholipids and the release of free [1-^14 C] oleic acid from the C-2 position of phospholipids by human platelet PLA2. To ice cold 15×100 mm test tubes, the following additions are made: 2,5×10 E. coli (equivalent to 4 nmol phospholipid), 5 mM Ca^++, 100 mM Tris buffer (pH=7.4), 100 μg platelet extract (or an amount to produce 20-30% hydrolysis), drug or vehicle. The final volume is adjusted to 500 μl with water. Mixtures are vortexed and incubated for 30 minutes in a shaking water bath. It should be noted that preliminary experiments are always performed with each new batch of platelets to establish linear hydrolysis of phospholipids with regard to protein concentration and time. The enzyme reaction is stopped by the addition of 3 volumes of CHCl3 to each tube which is vortexed and then centrifuged for 5 minutes at 500 g. The lower CHCl3 /CH3 OH phase is removed and evaporated under N. The dried residue is redissolved in 50 μl CHCl3 :CH3 OH (9:1 v/v), spotted on aluminum-backed chromatographic plates and developed in a solvent system consisting of petroleum ether:diethyl ether:acetic acid (80:20:1). Free fatty acid ([1-^14 C]oleic acid) and [1-^14 C]oleic acid labeled phospholipids are visualized with exposure to iodine vapors. Radioactive areas that cochromatographed with authentic oleic acid and phospholipid standards are cut out and placed in a scintillation vial. One ml CH3 OH and 10 ml Hydrofluor are added to each cut strip and radioactivity is determined by liquid scintillation counting.
The percent hydrolysis is calculated by the following equation: [formula]

[1] = test system: lipoxygenase and/or cyclooxygenase pathways of arachidonic acid; test: in vivo arachidonic acid (AA)-induced murine ear edema test; set-up: species or system Swiss Webster female mice; details: 1 mg/ear, 30 minutes prior to AA, ears measured after 1 hour
Text: (§2) The ability of the compounds of the invention to inhibit the lipoxygenase and/or cyclooxygenase pathways of arachidonic acid is examined in the in vivo arachidonic acid (AA)-/12-O-tetradecanoylphorbol acetate (TPA)-induced murine ear edema test.
According to this test, Swiss Webster female mice (Buckshire), approximately 8 weeks old, are placed into plastic boxes in groups of six. Eight groups of mice receive AA topically on the right ear, and another 8 groups receive TPA topically on the right ear. AA and TPA are dissolved in acetone at concentrations of 100 mg/ml ad 100 μg/ml respectively. The phlogistics are applied to the right ear by the means of an automatic pipet. Volumes of 10 μl are applied to the inner and outer surfaces of the ear. Each mouse receives either 2 mg/ear AA or […] TPA. The left ear (control) receives acetone delivered in the same manner. […]
(§3) Measurements are taken with Oditest calipers, 0-10 mm with 0.01 graduations. The right and left ears are measured after 1 hour AA-induced inflammation and 4 hours after TPA-induced inflammation.
(§4) The difference between right and left ear thickness is calculated and the significance is determined by a one way analysis of variance with Dunnett's comparisons to control (P=0.05). Drug effects are expressed as a percent change from control values: [formula]

[2] = test system: synthesis of arachidonic acid by murine peritoneal macrophages; test: inhibition of arachidonic acid (AA) synthesis by murine peritoneal macrophages; format: cell-based, CD-1 mice; details: compounds at 10 μm (so in the source)
Protocol: (§5) The ability of the compounds of the invention to inhibit both leukotriene and prostaglandin synthesis is examined in an assay which measures the ability of the compounds of the invention to inhibit the synthesis of arachidonic acid, PGE2 and LTC4 by murine peritoneal macrophages.
as §1
(§6) Macrophages are removed from the peritoneal cavity of 55-57 day old CD-1 mice (killed by CO2 asphyxiation) by peritoneal lavage and centrifuged at 400×g for ten minutes. The cells are resuspended in Medium 199 and 4×10^6 cells are allowed to adhere on 35×10 mm Petri dishes for 1.5 hours at 37° C. in an atmosphere of 95% air and 5% CO2. The cell monolayers are washed and incubated overnight in Medium 199 supplemented with 10% heat inactivated bovin serum containing 1 μCi[^14 C]-arachidonic acid, or in the absence of ^14 C-arachidonic acid when the supernatant is to be assayed by radioimmunoassay (RIA). The labeled cells are then washed and incubated at 37° C. for 2 hours in Medium 199 with the prostaglandin stimuli, zymosan, or 12-o-tetradecanoyl-phorbol-13-acetate (TPA) and in the presence or absence of test compounds. Following incubation, the supernatant is removed and subjected to radioimmunoassay in order to determine the percent inhibition of arachidonic acid, prostaglandin E2 and leukotriene C4 by the test compounds.

[3] = test system: synthesis of PGE2 by murine peritoneal macrophages; test: inhibition of PGE2 synthesis by murine peritoneal macrophages; format: cell-based, CD-1 mice; details: compounds at 10 μm (so in the source)
Protocol: as §5, §1, §6

[4] = test system: synthesis of LTC4 by murine peritoneal macrophages; test: inhibition of LTC4 synthesis by murine peritoneal macrophages; format: cell-based, CD-1 mice; details: compounds at 10 μm (so in the source)
Protocol: as §5, §1, §6

[5] = test system: lipoxygenase and/or cyclooxygenase pathways of arachidonic acid; test: in vivo 12-O-tetradecanoylphorbol acetate (TPA)-induced murine ear edema test; set-up: species or system Swiss Webster female mice; details: 30 minutes after TPA, ears measured after 4 hours; for % Change from Control, TOPICAL TPA: 1 mg/ear; for % Change from Control, ORAL TPA: 100 mg/kg
Text: as §2
According to this test, Swiss Webster female mice (Buckshire), approximately 8 weeks old, are placed into plastic boxes in groups of six. Eight groups of mice receive AA topically on the right ear, and another 8 groups receive TPA topically on the right ear. AA and TPA are dissolved in acetone at concentrations of 100 mg/ml ad 100 μg/ml respectively. The phlogistics are applied to the right ear by the means of an automatic pipet. Volumes of 10 μl are applied to the inner and outer surfaces of the ear. Each mouse receives either 2 mg/ear AA or 4 μg/ear TPA. The left ear (control) receives acetone delivered in the same manner. Oral and topical dosing regimens are as follows: (1) drugs are given 30 minutes prior to AA treatment, and (2) drugs are given 30 minutes after treatment with TPA.
as §3, §4

[6] = compounds of the invention, Table 1, read-out: IC50 (inhibition of PLA2)

inhibition at 100 µM (human platelet PLA2) [%]	IC50 (human platelet PLA2; [6]) [µM]	Compound	Mean % Inhibition ± S.E., AA [2] [%]	Mean % Inhibition ± S.E., PGE2 [3] [%]	Mean % Inhibition ± S.E., LTC4 [4] [%]	% Change from Control, TOPICAL TPA [5] [%]	also measured
100	8.5	CCCCCCCCCCCCCC(=O)N1CC(C)NC(C)C1 (stereo not shown) [Example 9, 3,5-Dimethyl-1-(1-oxotetradecyl)piperazine]	50.42 ± 2.50	73.50 ± 8.20	82.15 ± 2.48	-55	% Change from Control, ORAL TPA [5]: -25%
100	–	CCCCCCCCCCCCCCCCNC(=O)NCCCN(C)C [Example 6, N-[3-(dimethylamino)propyl]-N'-hexadecylurea]	–	–	–	–	–
94.4	–	CCCCCCCCCCCCCCCCS(=O)(=O)NCCCCCCCN(CC)CC [Example 7]	–	–	–	–	–
55.9	–	CCCCCCCCCCCCCC(=O)NN(C)C [Example 8, Tetradecanoic acid 2,2-dimethylhydrazide]	–	–	–	–	–

The next lines start with the compound.

Compound	inhibition at 100 µM (human platelet PLA2) [%]	IC50 (human platelet PLA2; [6]) [µM]	Mean % Inhibition ± S.E., AA [2] [%]	Mean % Inhibition ± S.E., PGE2 [3] [%]	Mean % Inhibition ± S.E., LTC4 [4] [%]	% Change from Control, TOPICAL TPA [5] [%]	also measured
CCCCCCCCCCCCCCCCNC(=O)OCCCN(C)C [Example 3, Hexadecylcarbamic acid 3-(dimethylamino)propyl ester]	100	–	–	–	–	–	–
CCCCCCCCCCCCNC(=O)OCCCCCCN(C)C [Example 1, Dodecylcarbamic acid 6-(dimethylamino)hexyl ester]	100	–	–	–	–	–	–
CCCCCCCCCCCCCCCCNC(=O)OCCCCCCN(C)C [Example 2, Hexadecylcarbamic acid 6-(dimethylamino)hexyl ester]	100	30	36.92 ± 6.29	81.18 ± 2.06	81.00 ± 1.79	-42	% Change from Control, TOPICAL AA [1]: -29%
CCCCCCNC(=O)OCCCCCCN(C)C [Example 5, Hexylcarbamic acid 6-(dimethylamino)hexyl ester]	11	–	–	–	–	–	–
Gold Sodium Thiomalate [reference compound]	–	–	–	–	–	–	IC50 (human platelet PLA2; standard drugs, read-out: Inhibition of PLA2 Activity IC50): 43 µM
CCCCCCCCCCCCCCC(=O)NCCCN(C)C [Example 4, N-[3-(dimethylamino)propyl]pentadecanamide]	100	6.8	34.12 ± 5.58	48.62 ± 9.32	91.95 ± 2.57	-48	% Change from Control, ORAL TPA [5]: -60%

Reference: patent publication US4824996A, “Phospholipase A2 inhibitors” (American Home Products Corporation, priority 1986, dated 1989)
